In patent US20220202799A1, “PHARMACEUTICAL FORMULATIONS CONTAINING P2Y14 ANTAGONISTS” (priority 2019, published 2022):
“And” between values parts separate entries of the source, which are not always exact repeats. Equal values may be shown once. Read-outs that look alike come from different tables or passages of the source.

Test: Plasma concentrations and TK parameters, 72-hour continuous intravenous infusion
Type: in vivo, Sprague-Dawley rats
Conditions: for concentration at 24 h / concentration at 48 h / concentration at 72 h / concentration at 78 h / concentration at 84 h / concentration at 96 h: Sprague-Dawley, rat, plasma, iv
Experimental: The safety and pharmacokinetics of PPTN (KB-1801) in rats receiving continuous intravenous injections of SBECD-containing solutions were analyzed. Three cohorts of six male and six female rats each were given continuous intravenous infusion of PPTN (KB-1801) at 10 mg/kg/day, 30 mg/kg/day or 100 mg/kg/day in a dosing solution containing PPTN at 0.25 mg/mL, 0.75 mg/mL or 2.5 mg/mL and SBECD at about 3.8%. Dosing volume was 40 mIkg/day. [table]

SMILES: O=C(O)c1cc(-c2ccc(C3CCNCC3)cc2)c2ccc(-c3ccc(C(F)(F)F)cc3)cc2c1 [KB-1801, 4-[4-(piperidin-4-yl)phenyl]-7-[4-(trifluoromethyl)phenyl]-2-naphthoic acid]
- concentration at 24 h (female, 100 mg/kg/day, female Sprague-Dawley rats, 72-hour intravenous infusion at 100 mg/kg/day, time 24 h, read-out: Plasma concentration, Mean): 7740 ng/mL
- concentration at 24 h (female, 100 mg/kg/day, female Sprague-Dawley rats, 72-hour intravenous infusion at 100 mg/kg/day, time 24 h, read-out: Plasma concentration, individual animal): 8270 ng/mL
- concentration at 48 h (female, 100 mg/kg/day, female Sprague-Dawley rats, 72-hour intravenous infusion at 100 mg/kg/day, time 48 h, read-out: Plasma concentration, Mean): 6720 ng/mL
- concentration at 48 h (female, 100 mg/kg/day, female Sprague-Dawley rats, 72-hour intravenous infusion at 100 mg/kg/day, time 48 h, read-out: Plasma concentration, individual animal): 6070 ng/mL
- concentration at 72 h (female, 100 mg/kg/day, female Sprague-Dawley rats, 72-hour intravenous infusion at 100 mg/kg/day, time 72 h, read-out: Plasma concentration, Mean): 6840 ng/mL
- concentration at 72 h (female, 100 mg/kg/day, female Sprague-Dawley rats, 72-hour intravenous infusion at 100 mg/kg/day, time 72 h, read-out: Plasma concentration, individual animal): 7110 ng/mL
- concentration at 78 h (female, 100 mg/kg/day, female Sprague-Dawley rats, 72-hour intravenous infusion at 100 mg/kg/day, time 78 h, read-out: Plasma concentration, Mean): 1820 ng/mL
- concentration at 78 h (female, 100 mg/kg/day, female Sprague-Dawley rats, 72-hour intravenous infusion at 100 mg/kg/day, time 78 h, read-out: Plasma concentration, individual animal): 1900 ng/mL
- concentration at 84 h (female, 100 mg/kg/day, female Sprague-Dawley rats, 72-hour intravenous infusion at 100 mg/kg/day, time 84 h, read-out: Plasma concentration, Mean): 987 ng/mL
- concentration at 84 h (female, 100 mg/kg/day, female Sprague-Dawley rats, 72-hour intravenous infusion at 100 mg/kg/day, time 84 h, read-out: Plasma concentration, individual animal): 841 ng/mL
- concentration at 96 h (female, 100 mg/kg/day, female Sprague-Dawley rats, 72-hour intravenous infusion at 100 mg/kg/day, time 96 h, read-out: Plasma concentration, Mean): 281 ng/mL
- concentration at 96 h (female, 100 mg/kg/day, female Sprague-Dawley rats, 72-hour intravenous infusion at 100 mg/kg/day, time 96 h, read-out: Plasma concentration, individual animal): 288 ng/mL
- Plasma concentration, individual animal (male Sprague-Dawley rats, 72-hour intravenous infusion at 10 mg/kg/day, time 24 h, 10 mg/kg/day): 547.8 ng/mL and 952.8 ng/mL
- Plasma concentration, individual animal (male Sprague-Dawley rats, 72-hour intravenous infusion at 10 mg/kg/day, time 48 h, 10 mg/kg/day): 539.5 ng/mL and 752.7 ng/mL
- Plasma concentration, individual animal (male Sprague-Dawley rats, 72-hour intravenous infusion at 10 mg/kg/day, time 72 h, 10 mg/kg/day): 617.8 ng/mL and 545.9 ng/mL
- Plasma concentration, individual animal (male Sprague-Dawley rats, 72-hour intravenous infusion at 10 mg/kg/day, time 78 h, 10 mg/kg/day): 205.5 ng/mL and 170.5 ng/mL
- Plasma concentration, individual animal (male Sprague-Dawley rats, 72-hour intravenous infusion at 10 mg/kg/day, time 84 h, 10 mg/kg/day): 82.6 ng/mL and 128.1 ng/mL
- Plasma concentration, individual animal (male Sprague-Dawley rats, 72-hour intravenous infusion at 10 mg/kg/day, time 96 h, 10 mg/kg/day): 60.2 ng/mL and 45.0 ng/mL
- Plasma concentration, individual animal (male Sprague-Dawley rats, 72-hour intravenous infusion at 30 mg/kg/day, time 24 h, 30 mg/kg/day): 1855.0 ng/mL and 2482.4 ng/mL
- Plasma concentration, individual animal (male Sprague-Dawley rats, 72-hour intravenous infusion at 30 mg/kg/day, time 48 h, 30 mg/kg/day): 2175.6 ng/mL and 2510.8 ng/mL
- Plasma concentration, individual animal (male Sprague-Dawley rats, 72-hour intravenous infusion at 30 mg/kg/day, time 72 h, 30 mg/kg/day): 1871.2 ng/mL and 2031.5 ng/mL
- Plasma concentration, individual animal (male Sprague-Dawley rats, 72-hour intravenous infusion at 30 mg/kg/day, time 78 h, 30 mg/kg/day): 690.2 ng/mL and 818.5 ng/mL
- Plasma concentration, individual animal (male Sprague-Dawley rats, 72-hour intravenous infusion at 30 mg/kg/day, time 84 h, 30 mg/kg/day): 273.1 ng/mL and 309.1 ng/mL
- Plasma concentration, individual animal (male Sprague-Dawley rats, 72-hour intravenous infusion at 30 mg/kg/day, time 96 h, 30 mg/kg/day): 164.1 ng/mL and 213.1 ng/mL
- Plasma concentration, individual animal (male Sprague-Dawley rats, 72-hour intravenous infusion at 100 mg/kg, time 24 h, 100 mg/kg): 7597.9 ng/mL and 10702.8 ng/mL
- Plasma concentration, individual animal (male Sprague-Dawley rats, 72-hour intravenous infusion at 100 mg/kg, time 48 h, 100 mg/kg): 6182.8 ng/mL and 7504.3 ng/mL
- Plasma concentration, individual animal (male Sprague-Dawley rats, 72-hour intravenous infusion at 100 mg/kg, time 72 h, 100 mg/kg): 7768.2 ng/mL
- Plasma concentration, individual animal (male Sprague-Dawley rats, 72-hour intravenous infusion at 100 mg/kg, time 78 h, 100 mg/kg): 1893.5 ng/mL and 2808.6 ng/mL
- Plasma concentration, individual animal (male Sprague-Dawley rats, 72-hour intravenous infusion at 100 mg/kg, time 84 h, 100 mg/kg): 1818.2 ng/mL
- Plasma concentration, individual animal (male Sprague-Dawley rats, 72-hour intravenous infusion at 100 mg/kg, time 96 h, 100 mg/kg): 333.5 ng/mL and 482.1 ng/mL
- concentration at 24 h (male, 10 mg/kg/day, male Sprague-Dawley rats, 72-hour intravenous infusion at 10 mg/kg/day, time 24 h, read-out: Plasma concentration, Mean): 803 ng/mL
- concentration at 24 h (male, 10 mg/kg/day, male Sprague-Dawley rats, 72-hour intravenous infusion at 10 mg/kg/day, time 24 h, read-out: Plasma concentration, individual animal): 908 ng/mL
- concentration at 48 h (male, 10 mg/kg/day, male Sprague-Dawley rats, 72-hour intravenous infusion at 10 mg/kg/day, time 48 h, read-out: Plasma concentration, Mean): 602 ng/mL
- concentration at 48 h (male, 10 mg/kg/day, male Sprague-Dawley rats, 72-hour intravenous infusion at 10 mg/kg/day, time 48 h, read-out: Plasma concentration, individual animal): 515 ng/mL
- concentration at 72 h (male, 10 mg/kg/day, male Sprague-Dawley rats, 72-hour intravenous infusion at 10 mg/kg/day, time 72 h, read-out: Plasma concentration, Mean): 594 ng/mL
- concentration at 72 h (male, 10 mg/kg/day, male Sprague-Dawley rats, 72-hour intravenous infusion at 10 mg/kg/day, time 72 h, read-out: Plasma concentration, individual animal): 618 ng/mL
- concentration at 78 h (male, 10 mg/kg/day, male Sprague-Dawley rats, 72-hour intravenous infusion at 10 mg/kg/day, time 78 h, read-out: Plasma concentration, Mean): 208 ng/mL
- concentration at 78 h (male, 10 mg/kg/day, male Sprague-Dawley rats, 72-hour intravenous infusion at 10 mg/kg/day, time 78 h, read-out: Plasma concentration, individual animal): 249 ng/mL
- concentration at 84 h (male, 10 mg/kg/day, male Sprague-Dawley rats, 72-hour intravenous infusion at 10 mg/kg/day, time 84 h, read-out: Plasma concentration, Mean): 98.9 ng/mL
- concentration at 84 h (male, 10 mg/kg/day, male Sprague-Dawley rats, 72-hour intravenous infusion at 10 mg/kg/day, time 84 h, read-out: Plasma concentration, individual animal): 86 ng/mL
- concentration at 96 h (male, 10 mg/kg/day, male Sprague-Dawley rats, 72-hour intravenous infusion at 10 mg/kg/day, time 96 h, read-out: Plasma concentration, Mean): 55.1 ng/mL
- concentration at 96 h (male, 10 mg/kg/day, male Sprague-Dawley rats, 72-hour intravenous infusion at 10 mg/kg/day, time 96 h, read-out: Plasma concentration, individual animal): 60 ng/mL
- concentration at 24 h (male, 30 mg/kg/day, male Sprague-Dawley rats, 72-hour intravenous infusion at 30 mg/kg/day, time 24 h, read-out: Plasma concentration, Mean): 1950 ng/mL
- concentration at 24 h (male, 30 mg/kg/day, male Sprague-Dawley rats, 72-hour intravenous infusion at 30 mg/kg/day, time 24 h, read-out: Plasma concentration, individual animal): 1520 ng/mL
- concentration at 48 h (male, 30 mg/kg/day, male Sprague-Dawley rats, 72-hour intravenous infusion at 30 mg/kg/day, time 48 h, read-out: Plasma concentration, Mean): 2500 ng/mL
- concentration at 48 h (male, 30 mg/kg/day, male Sprague-Dawley rats, 72-hour intravenous infusion at 30 mg/kg/day, time 48 h, read-out: Plasma concentration, individual animal): 2800 ng/mL
- concentration at 72 h (male, 30 mg/kg/day, male Sprague-Dawley rats, 72-hour intravenous infusion at 30 mg/kg/day, time 72 h, read-out: Plasma concentration, Mean): 1670 ng/mL
- concentration at 72 h (male, 30 mg/kg/day, male Sprague-Dawley rats, 72-hour intravenous infusion at 30 mg/kg/day, time 72 h, read-out: Plasma concentration, individual animal): 1110 ng/mL
- concentration at 78 h (male, 30 mg/kg/day, male Sprague-Dawley rats, 72-hour intravenous infusion at 30 mg/kg/day, time 78 h, read-out: Plasma concentration, Mean): 736 ng/mL
- concentration at 78 h (male, 30 mg/kg/day, male Sprague-Dawley rats, 72-hour intravenous infusion at 30 mg/kg/day, time 78 h, read-out: Plasma concentration, individual animal): 698 ng/mL
- concentration at 84 h (male, 30 mg/kg/day, male Sprague-Dawley rats, 72-hour intravenous infusion at 30 mg/kg/day, time 84 h, read-out: Plasma concentration, Mean): 290 ng/mL
- concentration at 84 h (male, 30 mg/kg/day, male Sprague-Dawley rats, 72-hour intravenous infusion at 30 mg/kg/day, time 84 h, read-out: Plasma concentration, individual animal): 289 ng/mL
- concentration at 96 h (male, 30 mg/kg/day, male Sprague-Dawley rats, 72-hour intravenous infusion at 30 mg/kg/day, time 96 h, read-out: Plasma concentration, Mean): 172 ng/mL
- concentration at 96 h (male, 30 mg/kg/day, male Sprague-Dawley rats, 72-hour intravenous infusion at 30 mg/kg/day, time 96 h, read-out: Plasma concentration, individual animal): 139 ng/mL
- concentration at 24 h (male, 100 mg/kg, male Sprague-Dawley rats, 72-hour intravenous infusion at 100 mg/kg, time 24 h, read-out: Plasma concentration, Mean): 9550 ng/mL
- concentration at 24 h (male, 100 mg/kg, male Sprague-Dawley rats, 72-hour intravenous infusion at 100 mg/kg, time 24 h, read-out: Plasma concentration, individual animal): 10300 ng/mL
- concentration at 48 h (male, 100 mg/kg, male Sprague-Dawley rats, 72-hour intravenous infusion at 100 mg/kg, time 48 h, read-out: Plasma concentration, Mean): 7030 ng/mL
- concentration at 48 h (male, 100 mg/kg, male Sprague-Dawley rats, 72-hour intravenous infusion at 100 mg/kg, time 48 h, read-out: Plasma concentration, individual animal): 7400 ng/mL
- concentration at 72 h (male, 100 mg/kg, male Sprague-Dawley rats, 72-hour intravenous infusion at 100 mg/kg, time 72 h, read-out: Plasma concentration, Mean): 9790 ng/mL
- concentration at 72 h (male, 100 mg/kg, male Sprague-Dawley rats, 72-hour intravenous infusion at 100 mg/kg, time 72 h, read-out: Plasma concentration, individual animal): 11800 ng/mL
- concentration at 78 h (male, 100 mg/kg, male Sprague-Dawley rats, 72-hour intravenous infusion at 100 mg/kg, time 78 h, read-out: Plasma concentration, Mean): 2640 ng/mL
- concentration at 78 h (male, 100 mg/kg, male Sprague-Dawley rats, 72-hour intravenous infusion at 100 mg/kg, time 78 h, read-out: Plasma concentration, individual animal): 3220 ng/mL
- concentration at 84 h (male, 100 mg/kg, male Sprague-Dawley rats, 72-hour intravenous infusion at 100 mg/kg, time 84 h, read-out: Plasma concentration, Mean): 2230 ng/mL
- concentration at 84 h (male, 100 mg/kg, male Sprague-Dawley rats, 72-hour intravenous infusion at 100 mg/kg, time 84 h, read-out: Plasma concentration, individual animal): 2650 ng/mL
- concentration at 96 h (male, 100 mg/kg, male Sprague-Dawley rats, 72-hour intravenous infusion at 100 mg/kg, time 96 h, read-out: Plasma concentration, Mean): 471 ng/mL
- concentration at 96 h (male, 100 mg/kg, male Sprague-Dawley rats, 72-hour intravenous infusion at 100 mg/kg, time 96 h, read-out: Plasma concentration, individual animal): 598 ng/mL
- Time for plasma PPTN concentrations to reach steady state (rats, continuous intravenous infusion): ≤ 24 h
- Plasma PPTN concentrations, relation to dose (rats, continuous intravenous infusion 10, 30, 100 mg/kg/day): linearly dose-related
